{"source": "patent US6982353B2", "about": "“C2-disubstituted indan-1-ol compounds, their derivatives, processes for their preparation, and their use as pharmaceuticals” (Aventis Pharma Deutschland GmbH, priority 2001, dated 2006)", "key": {"[1]": {"test_system": "female NMRI mice", "test": "Anorectic action: cumulative evaporated milk consumption after 24 h removal of feed", "assay_type": "in vivo", "conditions": "dose 20 mg/kg (ip or po, route not specified)", "method": "The anorectic action was tested on female NMRI mice. After removal of feed for 24 hours, the preparation to be tested was administered intraperitoneally (ip) or by gavage (po). The animals were housed singly and, with free access to drinking water, they were offered evaporated milk 30 minutes after administration of the preparation. The consumption of evaporated milk was determined and the general behavior of the animals was monitored every half an hour for 7 hours. The measured milk consumption was compared to that of vehicle-treated control animals."}}, "data": [{"smiles": "CS(=O)(=O)C1(F)Cc2cc(Cl)ccc2C1O", "note": "(stereo not drawn) [Example 1, 5-Chloro-2-fluoro-2-methanesulfonylindan-1-ol]", "values": [{"measurement": "melting point", "result": 101, "unit": "°C"}, {"measurement": "Reduction in cumulative milk consumption as % of the control", "setting": "[1]; compared with untreated control animals", "result": 46, "unit": "%"}, {"measurement": "cumulative milk consumption by treated animals", "setting": "[1]; feed removed 24 h, milk offered 30 min after administration, monitored for 7 hours", "result": "5/2.06 ml"}]}]}
